Assays:
Glutamate NMDA receptor [1] = experiment: Ability to inhibit [3H]-CGS- 19755 binding to NMDA receptor; assay type: protein-complex assay
Glutamate NMDA receptor [2] = experiment: Compound was tested for the antagonistic activity against depolarizations due to NMDA using rat cortical slice preparation; assay type: functional

Row | SMILES | IC50 (Glutamate NMDA receptor [1]) [nM] | IC50 (Glutamate NMDA receptor [2]) [nM]
1 | O=C(O)[C@H]1C[C@@H](Cc2nnn[nH]2)CCN1 (stereo in doubt; (+)-1) | 2390 | 39100
2 | O=C(O)[C@H]1C[C@@H](Cc2nnn[nH]2)CCN1 (stereo in doubt) | 67 | 1900
3 | O=C(O)[C@H]1C[C@@H](Cc2nnn[nH]2)CCN1 (racemic) | 107 | 4200
